Measured values reported in the CheMixHub drug solubility set.

Assay: xn = mol fraction of the nth substance listed, in the solute-free solvent

c1ccc(-c2ccc(C(c3ccccc3)n3ccnc3)cc2)cc1 (configuration not stated) + CO + O
solubility (g/100 g solution)
Details | 278.15 K | 283.15 K | 288.15 K | 293.15 K | 298.15 K | 303.15 K | 308.15 K | 313.15 K | 318.15 K
x2 = 0.05881 | 0.0843 | 0.114 | 0.153 | 0.198 | 0.236 | 0.32 | 0.418 | 0.51 | 0.631
x2 = 0.1233 | 0.301 | 0.4 | 0.525 | 0.671 | 0.792 | 1.05 | 1.35 | 1.63 | 1.98
x2 = 0.1942 | 0.641 | 0.845 | 1.1 | 1.39 | 1.74 | 2.21 | 2.78 | 3.35 | 3.94
x2 = 0.2727 | 0.98 | 1.28 | 1.66 | 2.1 | 2.5 | 3.23 | 4.06 | 4.89 | 5.86
x2 = 0.3599 | 1.23 | 1.68 | 2.17 | 2.73 | 3.35 | 4.17 | 5.19 | 6.23 | 7.39
x2 = 0.4576 | 1.42 | 1.87 | 2.41 | 3.07 | 3.72 | 4.76 | 5.94 | 7.21 | 8.64
x2 = 0.5675 | 1.6 | 2.11 | 2.72 | 3.56 | 4.38 | 5.54 | 6.87 | 8.37 | 9.89
x2 = 0.6923 | 1.81 | 2.39 | 3.08 | 3.95 | 4.89 | 6.2 | 7.71 | 9.46 | 11.3
x2 = 0.835 | 2.04 | 2.8 | 3.67 | 4.72 | 5.88 | 7.29 | 8.87 | 10.8 | 12.9

c1ccc(-c2ccc(C(c3ccccc3)n3ccnc3)cc2)cc1 (configuration not stated) + CC(O)CO + O
solubility (g/100 g solution)
Details | 278.15 K | 283.15 K | 288.15 K | 293.15 K | 298.15 K | 303.15 K | 308.15 K | 313.15 K | 318.15 K
x2 = 0.02564 | 0.0702 | 0.0956 | 0.129 | 0.168 | 0.2 | 0.272 | 0.357 | 0.437 | 0.544
x2 = 0.0559 | 0.223 | 0.3 | 0.398 | 0.511 | 0.608 | 0.812 | 1.05 | 1.27 | 1.56
x2 = 0.09214 | 0.441 | 0.588 | 0.777 | 0.991 | 1.18 | 1.56 | 2 | 2.41 | 2.96
x2 = 0.1364 | 0.633 | 0.843 | 1.11 | 1.42 | 1.71 | 2.23 | 2.85 | 3.45 | 4.22
x2 = 0.1915 | 0.747 | 0.998 | 1.32 | 1.73 | 2.16 | 2.74 | 3.47 | 4.21 | 5.14
x2 = 0.2621 | 0.794 | 1.06 | 1.41 | 1.82 | 2.24 | 2.91 | 3.71 | 4.55 | 5.62
x2 = 0.3559 | 0.86 | 1.14 | 1.5 | 1.93 | 2.42 | 3.13 | 4 | 4.89 | 5.95
x2 = 0.4865 | 0.859 | 1.2 | 1.6 | 2.03 | 2.59 | 3.24 | 3.98 | 4.95 | 6.18
x2 = 0.6806 | 0.776 | 1.06 | 1.42 | 1.94 | 2.58 | 3.33 | 4.25 | 5.2 | 6.23

NC(=O)NC1NC(=O)NC1=O (configuration not stated) + O + CO
solubility (g/100 g solution)
Details | 288.15 K | 293.15 K | 298.15 K | 303.15 K | 308.15 K | 313.15 K | 318.15 K | 323.15 K | 328.15 K | 333.15 K
x2 = 0.2 | 0.0735 | 0.0876 | 0.104 | 0.134 | 0.155 | 0.188 | 0.219 | 0.264 | 0.299 | 0.353
x2 = 0.359 | 0.114 | 0.138 | 0.175 | 0.205 | 0.255 | 0.297 | 0.357 | 0.443 | 0.521 | 0.582
x2 = 0.599 | 0.212 | 0.27 | 0.328 | 0.408 | 0.519 | 0.629 | 0.74 | 0.895 | 1.08 | 1.23
x2 = 0.771 | 0.239 | 0.328 | 0.424 | 0.526 | 0.694 | 0.866 | 1.06 | 1.28 | 1.55 | 1.94
x2 = 0.9 | 0.319 | 0.389 | 0.506 | 0.642 | 0.836 | 1.05 | 1.29 | 1.53 | 1.86 | 2.27

CCOC(=O)OC1=C(c2cc(C)ccc2C)C(=O)NC12CCC(OC)CC2 (configuration not stated) + CO + O
solubility (g/100 g solution)
Details | 278.15 K | 283.15 K | 288.15 K | 293.15 K | 298.15 K | 303.15 K | 308.15 K | 313.15 K | 318.15 K
x2 = 0.2 | 0.00416 | 0.0064 | 0.0104 | 0.0162 | 0.0253 | 0.0409 | 0.0592 | 0.0833 | 0.132
x2 = 0.4 | 0.292 | 0.365 | 0.473 | 0.613 | 0.803 | 1.07 | 1.44 | 1.9 | 2.64
x2 = 0.6 | 1.47 | 1.82 | 2.22 | 2.8 | 3.56 | 4.5 | 5.89 | 7.65 | 9.83
x2 = 0.8 | 3.55 | 4.27 | 5.22 | 6.38 | 8.03 | 10.1 | 12.7 | 15.7 | 19.2

NC(=O)NC1NC(=O)NC1=O (configuration not stated) + OCCO + CO
solubility (g/100 g solution)
Details | 288.15 K | 293.15 K | 298.15 K | 303.15 K | 308.15 K | 313.15 K | 318.15 K | 323.15 K | 328.15 K | 333.15 K
x2 = 0.154 | 0.124 | 0.146 | 0.174 | 0.21 | 0.242 | 0.287 | 0.338 | 0.396 | 0.461 | 0.524
x2 = 0.326 | 0.188 | 0.22 | 0.268 | 0.336 | 0.395 | 0.438 | 0.508 | 0.566 | 0.651 | 0.732
x2 = 0.521 | 0.305 | 0.338 | 0.387 | 0.447 | 0.531 | 0.613 | 0.66 | 0.756 | 0.83 | 0.938
x2 = 0.744 | 0.455 | 0.481 | 0.55 | 0.634 | 0.702 | 0.78 | 0.851 | 1 | 1.09 | 1.25

Cl.N=C(N)NC(=N)N1CCOCC1 + O + CC(C)O
solubility (g/100 g solution)
Details | x2 = 0.1 | x2 = 0.2 | x2 = 0.3 | x2 = 0.4 | x2 = 0.5 | x2 = 0.6 | x2 = 0.7 | x2 = 0.8 | x2 = 0.9
283.15 K | 0.441 | 0.892 | 2.04 | 4.24 | 8.16 | 13.2 | 19.8 | 25.8 | 35
293.15 K | 0.499 | 1.2 | 2.75 | 5.73 | 10.6 | 15.4 | 23.9 | 30.8 | 37.5
303.15 K | 0.607 | 1.51 | 3.56 | 7.55 | 13.8 | 20.6 | 29.6 | 36.8 | 44.3
313.15 K | 0.831 | 1.73 | 4.8 | 9.86 | 17.4 | 23.7 | 34.9 | 42.9 | 50.8
323.15 K | 1.11 | 2.09 | 5.83 | 12.6 | 21.2 | 30 | 39.1 | 45.7 | 55.9

C#CC1(O)C=CC2C3CCC4=CC(=O)CCC4C3CCC21CC (configuration not stated) + CO + O
solubility (g/100 g solution)
Details | x2 = 0.05881 | x2 = 0.1233 | x2 = 0.1942 | x2 = 0.2727 | x2 = 0.3599 | x2 = 0.4576 | x2 = 0.5675 | x2 = 0.6923 | x2 = 0.835
283.15 K | 0.314 | 0.312 | 0.374 | 0.434 | 0.812 | 1.22 | 1.5 | 3.21 | 3.44
293.15 K | 0.435 | 0.437 | 0.512 | 0.594 | 1.2 | 1.81 | 2.45 | 4.24 | 5.12
298.15 K | 0.503 | 0.51 | 0.598 | 0.692 | 1.49 | 2.18 | 3.09 | 4.83 | 6.09
303.15 K | 0.578 | 0.592 | 0.696 | 0.804 | 1.8 | 2.59 | 3.85 | 5.45 | 7.24
308.15 K | 0.66 | 0.687 | 0.811 | 0.932 | 2.16 | 3.06 | 4.78 | 6.1 | 8.54
313.15 K | 0.746 | 0.791 | 0.943 | 1.08 | 2.55 | 3.6 | 5.87 | 6.79 | 9.97
318.15 K | 0.838 | 0.905 | 1.09 | 1.25 | 2.97 | 4.2 | 7.12 | 7.51 | 11.7
323.15 K | 0.934 | 1.03 | 1.27 | 1.44 | 3.41 | 4.87 | 8.61 | 8.26 | 13.5

Cc1nc2n(c(=O)c1CCN1CCC(c3noc4cc(F)ccc34)CC1)CCCC2 + CC(C)O + O
solubility (g/100 g solution)
Details | 278.15 K | 283.15 K | 288.15 K | 293.15 K | 298.15 K | 303.15 K | 308.15 K | 313.15 K
x2 = 0.1139 | 0.369 | 0.473 | 0.605 | 0.788 | 0.98 | 1.22 | 1.52 | 1.88
x2 = 0.1664 | 1.41 | 1.66 | 1.99 | 2.47 | 2.94 | 3.63 | 4.31 | 5.25
x2 = 0.2308 | 2.72 | 3.2 | 3.94 | 4.7 | 5.66 | 6.83 | 8.2 | 9.98
x2 = 0.3101 | 4.21 | 4.9 | 5.85 | 6.92 | 8.29 | 9.97 | 11.9 | 14.2
x2 = 0.4116 | 4.95 | 5.81 | 6.87 | 8.09 | 9.69 | 11.5 | 13.5 | 16.3
x2 = 0.5454 | 4.55 | 5.34 | 6.38 | 7.46 | 8.78 | 10.4 | 12.3 | 14.6
x2 = 0.7297 | 2.53 | 3.02 | 3.63 | 4.31 | 5.08 | 6.06 | 7.28 | 8.7

O=C(NC(C(=O)O)c1ccccc1)OCc1ccccc1 (configuration not stated) + CCO + O
solubility (g/100 g solution)
Details | x2 = 0.1 | x2 = 0.2 | x2 = 0.3 | x2 = 0.4 | x2 = 0.5 | x2 = 0.6 | x2 = 0.7 | x2 = 0.8 | x2 = 0.9
283.15 K | 0.0534 | 0.628 | 1.49 | 2.83 | 4.36 | 6.29 | 8.19 | 11.1 | 11.8
293.15 K | 0.0958 | 0.786 | 2.21 | 4.37 | 6.76 | 9.75 | 13.4 | 17.7 | 18.1
303.15 K | 0.153 | 1.18 | 3.44 | 7.93 | 12.3 | 17.6 | 21.9 | 26.9 | 27.3
313.15 K | 0.239 | 1.91 | 6.85 | 13.9 | 22.6 | 29.6 | 35.5 | 39.3 | 40.2
323.15 K | 0.396 | 3.17 | 12.7 | 24 | 37.5 | 45.5 | 49.1 | 51.8 | 52.6

CCOC(=O)OC1=C(c2cc(C)ccc2C)C(=O)NC12CCC(OC)CC2 (configuration not stated) + CC(C)O + O
solubility (g/100 g solution)
Details | 278.15 K | 283.15 K | 288.15 K | 293.15 K | 298.15 K | 303.15 K | 308.15 K | 313.15 K | 318.15 K
x2 = 0.2 | 0.638 | 0.86 | 1.19 | 1.61 | 2.18 | 2.85 | 3.73 | 4.8 | 6.15
x2 = 0.4 | 2.55 | 2.99 | 3.88 | 5 | 6.36 | 8.23 | 10.4 | 13.1 | 16.5
x2 = 0.6 | 3.11 | 3.92 | 5.04 | 6.01 | 7.67 | 9.71 | 12.3 | 15.4 | 19.1
x2 = 0.8 | 2.53 | 3.07 | 3.85 | 5.03 | 6.44 | 8.1 | 10.2 | 13.2 | 16.5
